Converted amounts (≈) assume the structure as drawn. Like-named read-outs stand apart in the source and are kept apart here. Non-standard residues stand in square brackets, D forms with d. Residues, ends and D or L forms follow the SMILES beside them. Nleu = CC(C)CNCC(=O)O; Nlys = NCCCCNCC(=O)O
Experiments:
A. baumannii ATCC19606 = test: microbe, parasite or virus in culture; details: for MIC A. baumannii ATCC19606: supplement CSV
Outline: (§1)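 Read-out was visible growth after MTT addition, the MIC being the lowest inhibitory peptide concentration. Bacteria grown to log phase in LB were exposed in MH medium to peptide from 64 μg/mL in twofold dilutions for 15-18h at 37°C.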

E. coli W3110 = test: microbe, parasite or virus in culture; details: for MIC E. coli W3110: supplement CSV
Outline: as §1

K. pneumoniae NCTC 418 = test: microbe, parasite or virus in culture
Outline: as §1

P. aeruginosa PAO1 = test: microbe, parasite or virus in culture; details: for MIC P. aeruginosa PAO1: supplement CSV
Outline: as §1

S. aureus COL (MRSA) = test: microbe, parasite or virus in culture; details: for MIC S. aureus COL (MRSA): supplement CSV
Outline: as §1

E. cloacae = test: microbe, parasite or virus in culture; details: for MIC E. cloacae: supplement CSV
Experimental: (§2) Minimum inhibitory concentration assay
(§3) Antimicrobial activity was assayed against P. aeruginosa PAO1, K. pneumoniae NCTC418, E. coli W3110, A. baumannii ATCC 19606, methicillin-resistant S. aureus COL (MRSA), and for selected peptides on P. aeruginosa PA14 and the polymyxin-B-resistant derivative PA14 2P4, as well as the clinical isolates ZEM-1A and ZEM9A, K. pneumoniae OXA-48, S. aureus Newman, Enterobacter cloacae and Burkholderia cenocepacia. The minimal inhibitory concentration (MIC) was determined by using broth microdilution method. A colo ny of bacteria was picked and grown in Luria-Bertani (LB) medium overnight at 37°C. For E. coli BW25113 sbmA::kan the medium was supplemented with 25 mg/L of kanamycin. The next day, the culture was then regrown in LB medium to log phase (OD600 = 0.6 to 0.8), which lasted approximately 4 h, and diluted to an OD600 of 0.022 in the desired medium. Stock solutions of 1 mg/mL of the samples were prepared in sterilized milliQ water and diluted to the beginning concentration of 64 μg/mL in 300 μL Mueller Hinton (MH)-medium. The diluted samples were added to first well of 96-well microtiter plate (TPP, untreated, Faust Laborbedarf, AG, Schaffhausen) and diluted serially by ½. Finally, 4 μL of the bacterial suspension was inoculated into the sample solutions (150 μL/well) with a final inoculation of about 5∙10^5 CFU/mL. The plates were then incubated at 37°C for 15-18h. For each assay, sterility (broth only) and growth control (broth with bacterial inoculum, without antibiotics) were checked with two columns in the plate. The next day, 15 μL of 3-(4,5-dimethylthiazol-2-yl)-2,5-diphenyltetrazolium bromide (MTT) was added to each well of the plate, such a way that MIC was defined as the lowest concentration of the peptide that inhibited visible growth of the tested

K. pneumoniae OXA-48 = test: microbe, parasite or virus in culture; details: for MIC K. pneumoniae OXA-48: supplement CSV
Experimental: as §2, §3

[1] = tested on: P. aeruginosa PA14 2P4 (pmrB); test: microbe, parasite or virus in culture; details: for MIC P. aeruginosa PA14 2P4: supplement CSV
Experimental: as §2, §3

P. aeruginosa PA14 = test: microbe, parasite or virus in culture; details: for MIC P. aeruginosa PA14: supplement CSV
Experimental: as §2, §3

P. aeruginosa ZEM-1A = test: microbe, parasite or virus in culture
Experimental: as §2, §3

P. aeruginosa ZEM9A = test: microbe, parasite or virus in culture; details: for MIC P. aeruginosa ZEM9A: supplement CSV
Experimental: as §2, §3

[2] = tested on: P. aeruginosa PA14 4.13 (phoQ); details: for MIC P. aeruginosa PA14 4.13: supplement CSV
[3] = tested on: P. aeruginosa PA14 4.18 (pmrB); details: for MIC P. aeruginosa PA14 4.18: supplement CSV
human red blood cells [4] = test: Hemolysis assay, minimum hemolytic concentration
human red blood cells [5] = details: red cells of human, 6 h
[6] = supplement CSV, 12.5% MH pH 7.4
[7] = polymyxin B resistant strain, 12.5% MHB pH 7.4, 16–20 h at 37 °C
[8] = polymyxin B resistant strain, full MHB pH 7.4, 16–20 h at 37 °C

## CC[C@@H](C)[C@@H](NC(=O)[C@@H](CCCNC(=N)N)NC(=O)[C@H](CCCNC(=N)N)NC(=O)[C@@H]1CCCN1C(=O)[C@@H]1CCCN1C(=O)[C@H](CCCNC(=N)N)NC(=O)[C@@H]1CCCN1C(=O)[C@H](CCCNC(=N)N)NC(=O)[C@@H]1CCCN1C(=O)[C@H](CC(C)C)NC(=O)[C@H](Cc1ccc(O)cc1)NC(=O)[C@@H]1CCCN1C(=O)[C@@H]1CCCN1C(=O)[C@H](CCCCN)NC(=O)[C@H](CC(=O)O)NC(=O)[C@@H](N)C(C)C)C(=O)N[C@H](Cc1ccc(O)cc1)C(=O)N[C@H](CC(N)=O)C(=O)N[C@H](CCCNC(=N)N)C(N)=O [D5Cterm-Onc] (H-VDKPPYLPRPRPPR[dR][dI][dY][dN][dR]-NH2)
A. baumannii ATCC19606; A. baumannii ATCC19606, 12.5% Müller–Hinton medium, 16–20 h at 37 °C
  MIC A. baumannii, 12.5% MHB: 8 µg/mL (≈ 3.35 µM)
A. baumannii ATCC19606; A. baumannii ATCC19606, full Müller–Hinton medium, 16–20 h at 37 °C
  MIC A. baumannii, Full MHB: 64 µg/mL (≈ 26.8 µM)
A. baumannii ATCC19606; 12.5% MH pH 7.4
  MIC A. baumannii ATCC19606: 8 µg/mL (≈ 3.35 µM)
A. baumannii ATCC19606; full MH pH 7.4
  MIC A. baumannii ATCC19606: 64 µg/mL (≈ 26.8 µM)
E. coli W3110; E. coli W3110, 12.5% Müller–Hinton medium, 16–20 h at 37 °C, broth microdilution
  MIC E. coli, 12.5% MHB: 2 µg/mL (≈ 0.837 µM)
E. coli W3110; E. coli W3110, full Müller–Hinton medium, 16–20 h at 37 °C, broth microdilution
  MIC E. coli, Full MHB: 4 µg/mL (≈ 1.67 µM)
E. coli W3110; 12.5% MH pH 7.4
  MIC E. coli W3110: 2 µg/mL (≈ 0.837 µM)
E. coli W3110; full MH pH 7.4
  MIC E. coli W3110: 4 µg/mL (≈ 1.67 µM)
K. pneumoniae NCTC 418; K. pneumoniae NCTC 418, 12.5% Müller–Hinton medium, 16–20 h at 37 °C
  MIC K. pneumoniae, 12.5% MHB: 2 µg/mL (≈ 0.837 µM)
K. pneumoniae NCTC 418; K. pneumoniae NCTC 418, full Müller–Hinton medium, 16–20 h at 37 °C
  MIC K. pneumoniae, Full MHB: 4 µg/mL (≈ 1.67 µM)
K. pneumoniae NCTC 418; [6]
  MIC K. pneumoniae NCTC418: 2 µg/mL (≈ 0.837 µM)
K. pneumoniae NCTC 418; supplement CSV, full MH pH 7.4
  MIC K. pneumoniae NCTC418: 4 µg/mL (≈ 1.67 µM)
P. aeruginosa PAO1; P. aeruginosa PAO1, 12.5% Müller–Hinton medium, 16–20 h at 37 °C
  MIC P. aeruginosa, 12.5% MHB: 8 µg/mL (≈ 3.35 µM)
P. aeruginosa PAO1; P. aeruginosa PAO1, full Müller–Hinton medium, 16–20 h at 37 °C
  MIC P. aeruginosa, Full MHB: 64 µg/mL (≈ 26.8 µM)
P. aeruginosa PAO1; 12.5% MH pH 7.4
  MIC P. aeruginosa PAO1: 8 µg/mL (≈ 3.35 µM)
P. aeruginosa PAO1; full MH pH 7.4
  MIC P. aeruginosa PAO1: 64 µg/mL (≈ 26.8 µM)
S. aureus COL (MRSA); S. aureus COL (MRSA), 12.5% Müller–Hinton medium, 16–20 h at 37 °C
  MIC S. aureus, 12.5% MHB: 32 µg/mL (≈ 13.4 µM)
S. aureus COL (MRSA); S. aureus COL (MRSA), full Müller–Hinton medium, 16–20 h at 37 °C
  MIC S. aureus, Full MHB: > 64 µg/mL
S. aureus COL (MRSA); 12.5% MH pH 7.4
  MIC S. aureus COL (MRSA): 32 µg/mL (≈ 13.4 µM)
S. aureus COL (MRSA); full MH pH 7.4
  MIC S. aureus COL (MRSA): >64 µg/mL
E. cloacae; 12.5% MHB pH 7.4, 16–20 h at 37 °C
  MIC E. cloacae, 12.5% MHB: 1 µg/mL (≈ 0.418 µM)
E. cloacae; full MHB pH 7.4, 16–20 h at 37 °C
  MIC E. cloacae, full MHB: 32 µg/mL (≈ 13.4 µM)
E. cloacae; 12.5% MH pH 7.4
  MIC E. cloacae: 1 µg/mL (≈ 0.418 µM)
E. cloacae; full MH pH 7.4
  MIC E. cloacae: 32 µg/mL (≈ 13.4 µM)
K. pneumoniae OXA-48; carbapenem-resistant, 12.5% MHB pH 7.4, 16–20 h at 37 °C
  MIC K. pneumoniae OXA-48, 12.5% MHB: 4 µg/mL (≈ 1.67 µM)
K. pneumoniae OXA-48; carbapenem-resistant, full MHB pH 7.4, 16–20 h at 37 °C
  MIC K. pneumoniae OXA-48, full MHB: 32 µg/mL (≈ 13.4 µM)
K. pneumoniae OXA-48; 12.5% MH pH 7.4
  MIC K. pneumoniae OXA-48: 4 µg/mL (≈ 1.67 µM)
K. pneumoniae OXA-48; full MH pH 7.4
  MIC K. pneumoniae OXA-48: 32 µg/mL (≈ 13.4 µM)
[1]; [7]
  MIC P. aeruginosa PA14 2P4 (pmrB), 12.5% MHB: 2 µg/mL (≈ 0.837 µM)
[1]; [8]
  MIC P. aeruginosa PA14 2P4 (pmrB), full MHB: > 64 µg/mL
[1]; 12.5% MH pH 7.4
  MIC P. aeruginosa PA14 2P4: 2 µg/mL (≈ 0.837 µM)
[1]; full MH pH 7.4
  MIC P. aeruginosa PA14 2P4: >64 µg/mL
P. aeruginosa PA14; 12.5% MHB pH 7.4, 16–20 h at 37 °C, two different duplicate MIC determinations
  MIC P. aeruginosa PA14, 12.5% MHB: 8 µg/mL (≈ 3.35 µM)
P. aeruginosa PA14; full MHB pH 7.4, 16–20 h at 37 °C, two different duplicate MIC determinations
  MIC P. aeruginosa PA14, full MHB: > 64 µg/mL
P. aeruginosa PA14; 12.5% MH pH 7.4
  MIC P. aeruginosa PA14: 8 µg/mL (≈ 3.35 µM)
P. aeruginosa PA14; full MH pH 7.4
  MIC P. aeruginosa PA14: >64 µg/mL
P. aeruginosa ZEM-1A; clinical isolate, 12.5% MHB pH 7.4, 16–20 h at 37 °C, cells marked c: single measurement (in duplicates)
  MIC P. aeruginosa ZEM-1A, 12.5% MHB: 4 to 8 µg/mL
P. aeruginosa ZEM-1A; [6]
  MIC P. aeruginosa ZEM-1A: 4 to 8 µg/mL
P. aeruginosa ZEM9A; clinical isolate, 12.5% MHB pH 7.4, 16–20 h at 37 °C
  MIC P. aeruginosa ZEM9A, 12.5% MHB: 2 µg/mL (≈ 0.837 µM)
P. aeruginosa ZEM9A; clinical isolate, full MHB pH 7.4, 16–20 h at 37 °C
  MIC P. aeruginosa ZEM9A, full MHB: > 64 µg/mL
P. aeruginosa ZEM9A; 12.5% MH pH 7.4
  MIC P. aeruginosa ZEM9A: 2 µg/mL (≈ 0.837 µM)
P. aeruginosa ZEM9A; full MH pH 7.4
  MIC P. aeruginosa ZEM9A: >64 µg/mL
[2]; [7]
  MIC P. aeruginosa PA14 4.13 (phoQ), 12.5% MHB: 8 µg/mL (≈ 3.35 µM)
[2]; [8]
  MIC P. aeruginosa PA14 4.13 (phoQ), full MHB: 64 µg/mL (≈ 26.8 µM)
[2]; 12.5% MH pH 7.4
  MIC P. aeruginosa PA14 4.13: 8 µg/mL (≈ 3.35 µM)
[2]; full MH pH 7.4
  MIC P. aeruginosa PA14 4.13: 64 µg/mL (≈ 26.8 µM)
[3]; [7]
  MIC P. aeruginosa PA14 4.18 (pmrB), 12.5% MHB: 8 µg/mL (≈ 3.35 µM)
[3]; [8]
  MIC P. aeruginosa PA14 4.18 (pmrB), full MHB: 64 µg/mL (≈ 26.8 µM)
[3]; 12.5% MH pH 7.4
  MIC P. aeruginosa PA14 4.18: 8 µg/mL (≈ 3.35 µM)
[3]; full MH pH 7.4
  MIC P. aeruginosa PA14 4.18: 64 µg/mL (≈ 26.8 µM)
Human red blood cells [4]; 2.5% human red blood cells (final) in 10 mM phosphate, 150 mM NaCl, pH 7.4, 25 °C, 4 h, visual inspection
  Haemolysis on hRBC, MHC: >1000 µg/mL
Human red blood cells [4]; supplement CSV
  MHC human red blood cells: >1000 µg/mL

## CC(C)C[C@H](NC(=O)CN(CC(C)C)C(=O)[C@H](CC(C)C)NC(=O)CN(CCCCN)C(=O)[C@H](CC(C)C)NC(=O)CN(CC(C)C)C(=O)[C@H](CCCCN)NC(=O)CN(CC(C)C)C(=O)[C@H](CC(C)C)NC(=O)CN(CCCCN)C(=O)[C@@H](N)CCCCN)C(N)=O [EB9, reference compound] (H-K[Nlys]L[Nleu]K[Nleu]L[Nlys]L[Nleu]L-NH2; N-terminus assumed)
A. baumannii ATCC19606; ATCC19606
  MIC A. baumannii, 12.5% MHB: 16 µg/mL (≈ 12.1 µM)
  MIC A. baumannii, Full MHB: > 32 µg/mL
K. pneumoniae NCTC 418; NCTC 418
  MIC K. pneumoniae, 12.5% MHB: >32 / >32 μg/mL
  MIC K. pneumoniae, Full MHB: >32 / >32 μg/mL
K. pneumoniae NCTC 418; NCTC 418, 4 h, pH 7.4
  MIC K. pneumoniae NCTC418: >32 µg/mL
P. aeruginosa PAO1; PAO1
  MIC P. aeruginosa, 12.5% MHB: 4 µg/mL (≈ 3.03 µM)
  MIC P. aeruginosa, Full MHB: 32 µg/mL (≈ 24.2 µM)
S. aureus COL (MRSA); COL
  MIC S. aureus, 12.5% MHB: >32 / 32 μg/mL
  MIC S. aureus, Full MHB: >32 / 32 μg/mL
Human red blood cells [5]
  MHC human red blood cells: >2000 µg/mL
